Measured values reported in patent publication US20060205743A1, “Protein kinase inhibitors” (priority 2003, published 2006).

Target: MAPKAP-K2 (Homo sapiens, UniProt P49137)
Test: MAPKAP-Kinase 2 Assay (33P-ATP peptide phosphorylation, filter plate)
Type: biochemical
Set-up: key: +: active; ++: more active; +++: very active
Conditions: assays conducted at typically 1-100 μM
Protocol: MAPKAP-Kinase 2 Assay [Compound Preparation]
Compounds are dissolved in DMSO at a concentration of 3 mM and stored in aliquots at −20° C. Compounds in DMSO from these stock aliquots are diluted in 30% DMSO to produce initial working stock solutions of 1 mM and 3 mM. Both of these stock solutions are then subjected to 1:10 serial dilutions in 30% DMSO in order to prepare 3000, 1000, 300, 100, 30, 10, 3, 1, 0.1, 0.01 μM stock solutions. 5 μl of each stock solution is used per 50 μl reaction to give final assay concentrations of 300, 100, 30, 10, 3, 1, 0.3, 0.1, 0.01, 0.001 μM.
The kinase reaction is conducted in a round-bottomed polypropylene 96-well plate. MAPKAP-K2 is diluted to 25 mU/μl in diluent buffer (50 mM Tris/HCl. pH7.5, 0.1 mM EGTA, 0.1% (v/v) β-mercaptoethanol, 1 mg/ml BSA). 5 μl compound or 30% DMSO is added to each well followed by 25 μl substrate cocktail (10 μM ATP, 30 μM peptide (KKLNRTLSVA), 0.5 μCi ^33P-γ-ATP in 50 mM Tris pH7.5, 0.1 mM EGTA, 10 mM Mg-acetate, 0.1% BME). The reaction is initiated with the addition of 20 μl enzyme solution per well or 20 μl diluent buffer without enzyme. The plate is shaken for 10 sec and then left at room temperature for 30 min. The reaction is terminated with 50 μl 150 mM phosphoric acid. 90 μl of the reaction mixture is then transferred into a 96-well P81 filter plate (Millipore) and incubated at room temperature for 5 min. The filter plate is then washed 4 times with 200 μl 75 mM phosphoric acid per well on a plate vacuum manifold (Millipore) and dried in an oven for 2-3 h. Packard MicroScint ‘0’ (30 μl) is then added to each well, the plate is mixed for 30 min and subjected to liquid scintillation counting on a Packard TopCount.
[Interpretation] %Control=(X−B)/(Tot−B)×100 %Inhibition=100−% Control X=cpm of the test compound wells B=cpm of wells without enzyme Tot=cpm of wells with DMSO vehicle only

Sequence of MAPKAP-K2 (P49137 whole entry): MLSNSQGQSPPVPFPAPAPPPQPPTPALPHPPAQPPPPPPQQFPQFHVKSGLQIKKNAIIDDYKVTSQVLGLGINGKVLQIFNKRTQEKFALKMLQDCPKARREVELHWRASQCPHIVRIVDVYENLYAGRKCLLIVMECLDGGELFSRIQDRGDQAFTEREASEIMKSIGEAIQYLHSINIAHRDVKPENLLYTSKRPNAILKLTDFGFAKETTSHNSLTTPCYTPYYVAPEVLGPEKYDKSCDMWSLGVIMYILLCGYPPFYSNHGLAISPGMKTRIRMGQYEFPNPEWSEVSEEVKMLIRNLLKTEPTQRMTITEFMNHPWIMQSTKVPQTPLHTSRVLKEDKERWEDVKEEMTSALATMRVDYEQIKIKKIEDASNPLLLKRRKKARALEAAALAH

MAPKAP-K2 activity, +:
CS(=O)(=O)NC1CCC(Nc2cc(Nc3ccc(F)c(Cl)c3)n3nccc3n2)CC1 (stereo not drawn) [Compound 27]
NC1CCC(Nc2cc(NCCOc3ccccc3)n3nccc3n2)CC1 (stereo not drawn) [Compound 31]
NC1CCN(c2cc(Nc3ccc(F)c(Cl)c3)n3nccc3n2)C1 (stereo not drawn) [Compound 82]
CC(Nc1cc(N[C@H]2CC[C@H](N)CC2)nc2ccnn12)c1ccccc1 (stereo partly drawn) [Compound 23]
O=C(Nc1ccccc1)NC1CCC(Nc2cc(Nc3ccc(F)c(Cl)c3)n3nccc3n2)CC1 (stereo not drawn) [Compound 49]

MAPKAP-K2 activity, ++:
C=CCNc1cc(NC2CCC(N)CC2)nc2ccnn12 (stereo not drawn) [Compound 48]
N[C@H]1CC[C@H](Nc2cc(Nc3ccc4c(c3)OC(F)(F)O4)n3nccc3n2)CC1 [Compound 4]
Cc1ccsc1CNc1cc(N[C@H]2CC[C@H](N)CC2)nc2ccnn12 [Compound 7]
C#CC(C)(C)Nc1cc(NC2CCC(N)CC2)nc2ccnn12 (stereo not drawn) [Compound 111]
N[C@H]1CC[C@H](Nc2cc(NCc3ccc(F)c(Cl)c3)n3nccc3n2)CC1 [Compound 1]
COc1ccccc1Nc1cc(NC2CCC(N)CC2)nc2ccnn12 (stereo not drawn) [Compound 47]
Fc1ccc(Nc2cc(NC3CCC(NC4CCCCC4)CC3)nc3ccnn23)cc1Cl (stereo not drawn) [Compound 134]
Fc1ccc(Nc2cc(NC3CCC(NCCc4ccccc4)CC3)nc3ccnn23)cc1Cl (stereo not drawn) [Compound 121]
Fc1ccc(Nc2cc(NC3CCC(NCCCc4ccccc4)CC3)nc3ccnn23)cc1Cl (stereo not drawn) [Compound 124]
CNCCNc1cc(Nc2ccc(F)c(Cl)c2)n2nccc2n1 [Compound 86]
N[C@H]1CC[C@H](Nc2cc(NCc3cccc(Cl)c3)n3nccc3n2)CC1 [Compound 8]

MAPKAP-K2 activity, +++:
NC1CCC(Nc2cc(Nc3c(F)cccc3F)n3nccc3n2)CC1 (stereo not drawn) [Compound 109]
Fc1ccccc1Nc1cc(NC2CCCNC2)nc2ccnn12 (stereo not drawn) [Compound 141]
N[C@H]1CC[C@H](Nc2cc(Nc3ccc(Cl)cc3Cl)n3nccc3n2)CC1 [Compound 60]
Cc1ccc(C)c(Nc2cc(N[C@H]3CC[C@H](N)CC3)nc3ccnn23)c1 [Compound 75]
N[C@H]1CC[C@H](Nc2cc(Nc3cccc(Cl)c3Cl)n3nccc3n2)CC1 [Compound 67]
CCN[C@H]1CC[C@H](Nc2cc(Nc3ccc(F)c(Cl)c3)n3nccc3n2)CC1 [Compound 89]
N[C@H]1CC[C@H](Nc2cc(Nc3ccc(Cl)c(Cl)c3)n3nccc3n2)CC1 [Compound 3]
Cc1ccccc1Nc1cc(N[C@H]2CC[C@H](N)CC2)nc2ccnn12 [Compound 9]
N[C@H]1CC[C@H](Nc2cc(Nc3ccc(C(F)(F)F)cc3)n3nccc3n2)CC1 [Compound 20]
Cc1cccc(Nc2cc(N[C@H]3CC[C@H](N)CC3)nc3ccnn23)c1C [Compound 76]
N[C@H]1CC[C@H](Nc2cc(Nc3cccc(Cl)c3)n3nccc3n2)CC1 [Compound 11]
CCOc1ccc(Nc2cc(NC3CCCNC3)nc3ccnn23)cc1 (stereo not drawn) [Compound 139]
N[C@H]1CC[C@H](Nc2cc(Nc3cccc(OC(F)(F)F)c3)n3nccc3n2)CC1 [Compound 63]
CN(C)c1cccc(Nc2cc(N[C@H]3CC[C@H](N)CC3)nc3ccnn23)c1 [Compound 19]
NC1CCC(Nc2cc(Nc3cccc(I)c3)n3nccc3n2)CC1 (stereo not drawn) [Compound 40]
CC(C)=CCCC(C)=CCNc1cc(NC2CCC(N)CC2)nc2ccnn12 (stereo not drawn) [Compound 115]
NC1CCC(Nc2cc(Nc3ccc(Oc4cccc(C(F)(F)F)c4)cc3)n3nccc3n2)CC1 (stereo not drawn) [Compound 42]
Ic1cccc(Nc2cc(NC3CCCNC3)nc3ccnn23)c1 (stereo not drawn) [Compound 140]
Fc1ccc(Nc2cc(NC3CCCNC3)nc3ccnn23)cc1Cl (stereo not drawn) [Compound 74]
NC1CCC(Nc2cc(Nc3ccc(OC(F)(F)F)cc3Cl)n3nccc3n2)CC1 (stereo not drawn) [Compound 107]
